In patent publication US20260242415A1 (priority 2022, published 2026):
pIC50: −log10 of the molar value. Positions of bridges follow the written chain, without caps; N, C: chain ends. Non-standard residues stand in square brackets, D forms with d. Chains are numbered I, II in the order given. AEEA = NCCOCCOCC(=O)O

What was measured:
[1] = system: SARS-CoV-2 pseudoviruses
[2] = system: whole SARS-CoV-2 virus
[3] = system: spike protein of the SARS-CoV-2 virion; assay type: binding
[4] = target: full length SARS-CoV-2 Spike (Severe acute respiratory syndrome coronavirus 2, UniProt P0DTC2); assay type: binding; conditions: 10 µM
[5] = system: VSV pseudotyped with spike protein from SARS-CoV-1
[6] = system: SARS2-S pseudotyped VSV
[7] = system: VSV pseudotyped with spike protein from SARS-CoV-2
[8] = system: VSV pseudotyped with spike protein from WIV-16

Molecule “I: {CH2CO}-YRRPREQIIIGSLWVFCG[AEEA][AEEA][AEEA][AEEA]KG-NH2 / II: {CH2CO}-YRRPREQIIIGSLWVFCG[AEEA][AEEA][AEEA][AEEA] (amide I:23-II:C; thioether I:N-I:17, II:N-II:17) [Dimer 1]” has a pIC50 [1] of 7.52.

For `CC[C@H](C)[C@@H]1NC(=O)[C@H](C(C)C)NC(=O)[C@H](CC(C)C)NC(=O)[C@H](CCCCN)NC(=O)[C@H](CCCNC(=N)N)NC(=O)[C@@H]2CCCN2C(=O)[C@H](C(C)C)NC(=O)[C@H](CCCNC(=N)N)NC(=O)[C@H](Cc2ccc(O)cc2)NC(=O)CSC[C@@H](C(=O)NCC(N)=O)NC(=O)[C@H](Cc2ccccc2)NC(=O)[C@H](CC(N)=O)NC(=O)[C@H](Cc2c[nH]c3ccccc23)NC(=O)[C@H](C(C)C)NC(=O)[C@H](CO)NC(=O)CNC(=O)[C@H]([C@@H](C)CC)NC1=O` [Compound S1b3inL4], the pIC50 [2] was 4.94, the “enrichment in final round (% of total sequences)” value [3] was 1.50% and the “ΔTm, melting point change” value [4] was 0 °C.

In the case of SVVFSADGRHYYWDS [SARS2L3], the “enrichment in final round (% of total sequences)” value [3] was 1.25% and the “ΔTm, melting point change” value [4] was 0 °C.

For `CC[C@H](C)[C@@H]1NC(=O)[C@H](CCC(N)=O)NC(=O)[C@H](CCC(=O)O)NC(=O)[C@H](CCCNC(=N)N)NC(=O)[C@@H]2CCCN2C(=O)[C@H](CCCNC(=N)N)NC(=O)[C@H](CCCNC(=N)N)NC(=O)[C@H](Cc2ccc(O)cc2)NC(=O)CSC[C@@H](C(=O)NCC(N)=O)NC(=O)[C@H](Cc2ccccc2)NC(=O)[C@H](C(C)C)NC(=O)[C@H](Cc2c[nH]c3ccccc23)NC(=O)[C@H](CC(C)C)NC(=O)[C@H](CO)NC(=O)CNC(=O)[C@H]([C@@H](C)CC)NC(=O)[C@H]([C@@H](C)CC)NC1=O` [Compound S1b3inL1], the pIC50 [5] was 5.66, the pIC50 [2] was 5.28 and the pIC50 [1] was 5.82. It also gave a pIC50 [6] of 6.09, a pIC50 [7] of 5.77 and a pIC50 [8] of 5.15.

IVLHDGLRSATVLWI [SARS2R3L2] was tested, and the “enrichment in final round (% of total sequences)” value [3] was 0.77% and the “ΔTm, melting point change” value [4] was 1.5 °C.

For LIWYQSYYQTEVVWF [SARS1spikeL1], the “enrichment in final round (% of total sequences)” value [3] was 8.32%.

In the case of “I: {CH2CO}-YRRPREQIIIGSLWVFCG[AEEA][AEEA]KG-NH2 / II: {CH2CO}-YRRPREQIIIGSLWVFCG[AEEA][AEEA] (amide I:21-II:C; thioether I:N-I:17, II:N-II:17) [Dimer 2]”, the pIC50 [1] was 7.30.

Work on “I: {CH2CO}-YRRPREQIIIGSLWVFCG[AEEA][AEEA][AEEA][AEEA][AEEA][AEEA][AEEA][AEEA]KG-NH2 / II: {CH2CO}-YRRPREQIIIGSLWVFCG[AEEA][AEEA][AEEA][AEEA][AEEA][AEEA][AEEA][AEEA] (amide I:27-II:C; thioether I:N-I:17, II:N-II:17) [Dimer 4]” yielded a pIC50 [1] of 8.00.

For LVFHDNVYTVTVVHV [SARS2R3L1], the “enrichment in final round (% of total sequences)” value [3] was 0.71% and the “ΔTm, melting point change” value [4] was 1 °C.

For SIENYLKKLGYVLLW [SARS2D4], the “enrichment in final round (% of total sequences)” value [3] was 5.53% and the “ΔTm, melting point change” value [4] was −0.5 °C.

In the case of TSQICQELDALGDWI [SARS1spikeD2], the “enrichment in final round (% of total sequences)” value [3] was 7.71%.

In the case of IILYRTYFQPFRWEF [SARS1spikeL2], the “enrichment in final round (% of total sequences)” value [3] was 5.58%.

VIWHPDRWTSVVLQI [SARS2L2] was tested, and the “enrichment in final round (% of total sequences)” value [3] was 17.02% and the “ΔTm, melting point change” value [4] was 2 °C.

“I: {CH2CO}-YRRPREQIIIGSLWVFCG[AEEA][AEEA][AEEA][AEEA][AEEA][AEEA]KG-NH2 / II: {CH2CO}-YRRPREQIIIGSLWVFCG[AEEA][AEEA][AEEA][AEEA][AEEA][AEEA] (amide I:25-II:C; thioether I:N-I:17, II:N-II:17) [Dimer 3]” gave a pIC50 [1] of 7.05.

For `CC[C@H](C)[C@@H]1NC(=O)[C@H](Cc2ccc(O)cc2)NC(=O)CSC[C@@H](C(=O)NCC(N)=O)NC(=O)[C@H](C(C)C)NC(=O)[C@H](Cc2ccc(O)cc2)NC(=O)[C@H](CCC(N)=O)NC(=O)[C@H](C(C)C)NC(=O)[C@H](Cc2c[nH]cn2)NC(=O)[C@H]([C@@H](C)O)NC(=O)[C@H](CO)NC(=O)[C@H](Cc2ccc(O)cc2)NC(=O)[C@H](CC(C)C)NC(=O)[C@H](CO)NC(=O)[C@H](CC(=O)O)NC(=O)[C@H](Cc2c[nH]cn2)NC(=O)[C@H](Cc2c[nH]c3ccccc23)NC(=O)[C@H](C(C)C)NC1=O` [SARS2L1], the pIC50 [2] was < 4.00 and the pIC50 [6] was 6.39.

For CFFWYENYYTAITVT [SARS1spikeL3], the “enrichment in final round (% of total sequences)” value [3] was 2.90%.

With NARILQRWFPELAHL [SARS2D1] the “enrichment in final round (% of total sequences)” value [3] was 11.88% and the “ΔTm, melting point change” value [4] was 0 °C.
